# Test results as given in the supplement of paper PMC4862054.
# Tests used:
# Assay in all cases: normalised viability (% of control), CellTiter-Blue; higher = more viable cells (about 100 = DMSO control)
# Settings in all cases: incubation time: 72 h
# CAL-148 [1] = tested on: CAL-148
# Method: (§1)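 DSRT, CellTiter-Blue viability, 72 h incubation. Signal is normalised to DMSO and benzethonium chloride controls. Value is the normalised response at dose 9.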
# CAL-51 [2] = tested on: CAL-51
# Method: as §1
# CAL-85-1 [3] = tested on: CAL-85-1
# Method: as §1
# DU-4475 [4] = tested on: DU-4475
# Method: as §1
# HDQ-P1 [5] = tested on: HDQ-P1
# Method: as §1
# MDA-MB-453 [6] = tested on: MDA-MB-453
# Method: as §1
# CAL-148 [7] = tested on: CAL-148; remark: listed apart in the source
# Method: (§2)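 DSRT, CellTiter-Blue viability, 72 h incubation. Signal is normalised to DMSO and benzethonium chloride controls. Value is the normalised response at dose 8.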
# CAL-51 [8] = tested on: CAL-51; remark: listed apart in the source
# Method: as §2
# CAL-85-1 [9] = tested on: CAL-85-1; remark: listed apart in the source
# Method: as §2
# DU-4475 [10] = tested on: DU-4475; remark: listed apart in the source
# Method: as §2
# HDQ-P1 [11] = tested on: HDQ-P1; remark: listed apart in the source
# Method: as §2
# MDA-MB-453 [12] = tested on: MDA-MB-453; remark: listed apart in the source
# Method: as §2
Structure (SMILES),normalised viability (CAL-148 [1]),normalised viability (CAL-51 [2]),normalised viability (CAL-85-1 [3]),normalised viability (DU-4475 [4]),normalised viability (HDQ-P1 [5]),normalised viability (MDA-MB-453 [6]),normalised viability (CAL-148 [7]),normalised viability (CAL-51 [8]),normalised viability (CAL-85-1 [9]),normalised viability (DU-4475 [10]),normalised viability (HDQ-P1 [11]),normalised viability (MDA-MB-453 [12])
C[C@@H](CN1CC(=O)NC(=O)C1)N1CC(=O)NC(=O)C1 [Dexrazoxane] (10000 nM),96.2%,92.9%,93.7%,102%,85.2%,100%,,,,,,
COc1cc2c(Oc3ccc(NC(=O)C4(C(=O)Nc5ccc(F)cc5)CC4)cc3F)ccnc2cc1OCCCN1CCOCC1 [Foretinib] (300 nM),,,,,,,91.6%,68.5%,84%,98.8%,60.9%,75.4%
NC(=O)NO [Hydroxyurea] (30000 nM),,,,,,,103%,111%,89.1%,104%,104%,93.1%
O=NN(CCCl)C(=O)NC1CCCCC1 [Lomustine] (3000 nM),,,,,,,103%,113%,93.8%,89.1%,99.7%,112%
O=C(O)CC[C@H]1CC[C@@](c2cc(F)ccc2F)(S(=O)(=O)c2ccc(Cl)cc2)CC1 [MK-0752] (300 nM),,,,,,,95.3%,119%,94.6%,115%,114%,114%
NC1(c2ccc(-c3nc4ccn5c(=O)[nH]nc5c4cc3-c3ccccc3)cc2)CCC1 [MK-2206] (300 nM),,,,,,,91.3%,98.8%,82.9%,100%,77.5%,73%
NC(=O)c1cccc2cn(-c3ccc([C@@H]4CCCNC4)cc3)nc12 [MK-4827] (3000 nM),,,,,,,73.5%,48.8%,85.8%,58.6%,91.3%,101%
N[C@@H](Cc1ccc(N(CCCl)CCCl)cc1)C(=O)O [Melphalan] (297 nM),,,,,,,100%,106%,97.9%,88.9%,100%,110%
N[C@@H](Cc1ccc(N(CCCl)CCCl)cc1)C(=O)O [Melphalan] (990 nM),74.2%,68.8%,72.1%,62.4%,94%,95.8%,,,,,,
Cc1c(C(=O)Nc2ccc(N3C[C@@H](C)O[C@@H](C)C3)nc2)cccc1-c1ccc(OC(F)(F)F)cc1 [NVP-LDE225] (3000 nM),,,,,,,107%,101%,109%,121%,84.1%,75.2%
Cc1c(C(=O)Nc2ccc(N3C[C@@H](C)O[C@@H](C)C3)nc2)cccc1-c1ccc(OC(F)(F)F)cc1 [NVP-LDE225] (10000 nM),121%,92.5%,98.4%,110%,127%,82.8%,,,,,,
